Measured values taken from paper PMC6162201, “Towards a comprehensive understanding of the structural dynamics of a bacterial diterpene synthase during catalysis” (Nature Communications, 2018).

Biological target: T1, CotB2 (CotB2^wt) (Streptomyces melanosporofaciens, UniProt C9K1X5)
T1 construct: C-terminal His6 tag, pET-24a, expressed in E. coli Rosetta2 (DE3)
T1 sequence (C9K1X5 1-307): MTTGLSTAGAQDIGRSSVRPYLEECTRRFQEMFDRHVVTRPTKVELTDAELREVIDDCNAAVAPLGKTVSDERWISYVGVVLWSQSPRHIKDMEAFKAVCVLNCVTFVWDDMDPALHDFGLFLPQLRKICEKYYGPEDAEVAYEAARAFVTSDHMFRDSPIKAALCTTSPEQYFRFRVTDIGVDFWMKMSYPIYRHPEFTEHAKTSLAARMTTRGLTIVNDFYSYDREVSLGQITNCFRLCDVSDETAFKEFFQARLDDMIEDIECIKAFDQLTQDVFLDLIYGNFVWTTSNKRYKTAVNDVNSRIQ
Format: binding
Conditions: Mg2+ (three ions), pH 8.5; active site, diphosphate mimic, closed state

NCCCC(O)(P(=O)(O)O)P(=O)(O)O [AHD, (4-amino-1-hydroxy-1-phosphonobutyl)phosphonate]
X-ray crystal structure, co-crystallisation: we crystallised CotB2 with (4-amino-1-hydroxy-1-phosphonobutyl)phosphonate (alendronate (AHD)
